This note sets out measurements from PubChem BioAssay AID602211 (Sanford-Burnham Center for Chemical Genomics, 2012).

Calls of active or inactive are those of the source.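 The calls were made as follows: active = mean IC50 at or below 10 µM; inactive = the rest.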 Some results are limits rather than exact numbers.

The term IC50 denotes the concentration at which inhibition is half-maximal.

The subject of this assay is H9c2 cardiomyocytes, H2O2 protection, ATPLite viability, 2 h. The assay is described as follows: H2O2-induced H9c2 cell death suppression – ATPLite luminescence, set 2, dose response (AID 602211;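 also: potency is for protection so actives keep ATP signal up against peroxide killing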). (Cellular ATP, detected with luciferase, serves as a proxy for viable cell number.)
On to `COc1ccc(-c2ccc3[nH]c4c(c3c2)CCN2C[C@H]3[C@H](C)ON(C)[C@H]3C[C@@H]42)cc1`, for which the IC50 was > 79 µM (inactive).

Regarding `COc1ccc(CCNC(=O)c2cc3c(C)nccc3[nH]c2=O)cc1OC`, the half-inhibitory concentration (IC50) is 7.47 µM.

Consider `O=C(c1cc(=O)[nH]c2ccccc12)N1CCN(S(=O)(=O)c2ccc3ccccc3c2)CC1`, for which the IC50 is 2.89 µM.

Consider `O=C1NC(Cc2ccc(O)cc2)c2nc3ccc(F)cc3c(=O)n2-c2cc3ccccc3cc21` (centres undefined), for which the IC50 was 3.72 µM.

As for `COc1ccc(COc2cc(-c3cccc(OC)c3)nc3ccc(NC(=O)c4cccnc4)cc23)cc1`, the IC50 is 2.36 µM.

For the molecule `COCCCN(Cc1ccco1)C(=O)Cn1ncc2c([nH]c3ccccc32)c1=O`, the IC50 is 10.9 µM (inactive).

Regarding `O=C(NC1CCCCC1)C(c1ccc2ncccc2c1)N(Cc1ccccc1)C(=O)c1ccc2c(c1)OCCO2` (centres undefined), the IC50 was 5.54 µM.

As for `COc1ccc(-c2cc(NC(C)=O)c3ncc(-c4cccc(C(C)=O)c4)n3c2)cc1OC`, the IC50 was 7.18 µM.

For `Cc1nc(N2CCN(c3ccccn3)CC2)c2c(C)c(C(=O)Nc3ccccc3F)sc2n1`, the half-maximal inhibitory concentration (IC50) is 4.04 µM.

With `O=C(CN1C(=O)C2CC=CCC2C1=O)Nc1nc(-c2ccc(F)cc2)cs1` (centres undefined), the IC50 is > 79 µM (inactive).

With `COc1cc(/C=N/NC(=O)c2ccncc2)ccc1OC(=O)c1ccccc1Cl`, the 50% inhibitory concentration (IC50) was 5.67 µM.

`Cc1ccccc1NP(=O)(Oc1ccccc1F)Oc1ccccc1F`: the IC50 was > 79 µM (inactive).

For the molecule `COC(=O)c1ccc(C(NC(=O)OCc2ccccc2)/C(C)=C/[C@@H](C)C(=O)NCc2ccc(OC)c(OC)c2)cc1` (some centres undefined), the IC50 is > 79 µM (inactive).

With `CCOC(=O)C1CCN(c2cc3c(cc2NC(=O)c2ccccc2Cl)n(C)c(=O)n3C)CC1`, the IC50 is 5.6 µM.

On to `O=C(Nc1ccccc1)c1nc[nH]c1C(=O)NCCNC(=O)c1[nH]cnc1C(=O)Nc1ccccc1`, for which the half-inhibitory concentration (IC50) is 0.668 µM.

With `O=C(N/N=C\c1ccccn1)c1cccc(C(=O)N/N=C\c2ccccn2)n1`, the IC50 was 2.07 µM.

For `O=C(COC(=O)c1ccccc1C(=O)OCC(=O)NCCc1c[nH]c2ccccc12)NCCc1c[nH]c2ccccc12`, the IC50 was 4.86 µM.

Regarding `O=C(NCC(=O)N(Cc1cccs1)C(C(=O)NC1CCCCC1)c1ccco1)c1ccco1` (centres undefined), the IC50 was 10.6 µM (inactive).

On to `CC(C)(C)OC(=O)N1CCC[C@H]1c1nnc(SCC(=O)Nc2ccc(Br)cc2)o1`, for which the IC50 was 5.87 µM.

On to `N#Cc1c(-c2ccco2)cc(-c2cccnc2)nc1N`, for which the IC50 is 11 µM (inactive).

For `C=CC[C@@H](CC(=O)NCCO)C(=O)NC[C@H](OC(=O)[C@@H](CC=C)Cc1ccc(F)cc1)c1ccccc1`, the IC50 was 3.38 µM.

For `COc1ccc(-c2nn3c(-c4ccco4)nnc3s2)cc1OC`, the IC50 was 12.3 µM (inactive).

As for `CC(C)(C)OC(=O)CNC(=O)c1[nH]cnc1C(=O)NCC(=O)OCc1ccccc1`, the IC50 was 0.747 µM.

For `COc1nc(N/N=C/c2cc3c(cc2Br)OCO3)nc(N2CCOCC2)n1`, the IC50 was 11.9 µM (inactive).

For the molecule `COc1cc(C(=O)Nc2ccc(NC(=O)c3ccco3)nc2)cc(OC)c1OC`, the IC50 was 25.7 µM (inactive).

As to `CCOC(=O)c1cc(-c2nnc(-c3cc(OC)c(OC)c(OC)c3)o2)c(C)nc1C`, the IC50 was 2.25 µM.

For the molecule `COc1cc(NC(=O)c2cc([N+](=O)[O-])ccc2NC(=O)CN2CCN(c3ccccn3)CC2)cc(OC)c1`, the IC50 was 2.58 µM.

With `CCOc1ncccc1C(=O)Nc1cccc(-c2nc3cccnc3s2)c1`, the 50% inhibitory concentration (IC50) was 3.51 µM.

As to `O=C(c1ccccc1)c1ccc2nc(N3CCN(C(=O)c4ccco4)CC3)c3nncn3c2c1`, the IC50 was 9.31 µM.

Turning to `CCC(CC)C(=O)Nc1cc(C)c2c(=O)oc3ccccc3c2n1`, the half-inhibitory concentration (IC50) is 2.05 µM.

`CC(C)(C)NC(=O)c1cccc(NC(=O)c2ccc(NC(=O)c3ccco3)cc2)c1`: the IC50 is > 79 µM (inactive).

With `NC(=O)c1ccc(Nc2nnc(-c3ccc(O)cc3)c3ccccc23)cc1`, the IC50 is 14.7 µM (inactive).

Regarding `CCCCn1nc(NC(=O)c2cccs2)c2cc3cc(OC)ccc3nc21`, the IC50 is 3.61 µM.

In the case of `COC(=O)c1cc(OC)c(OC)cc1NC(=O)c1ccc(C)o1`, the IC50 was 3.98 µM.

As to `Cc1cccc(NC(=O)c2cc(-c3ccco3)nc3ccccc23)n1`, the 50% inhibitory concentration (IC50) is 8.15 µM.

As for `COc1ccc(-c2nnc(-c3cc(OC)c(OC)c(OC)c3)o2)cc1OC`, the IC50 is 43.9 µM (inactive).

Consider `COc1ccccc1NC(=O)c1cc(-c2ccc(OC)c(OC)c2)nc2ccccc12`, for which the IC50 is 4.06 µM.

For the molecule `O=[N+]([O-])c1ccc(Nc2nc(N/N=C/c3cccc(F)c3)nc(N3CCCC3)n2)cc1`, the 50% inhibitory concentration (IC50) is 9.66 µM.

Turning to `CC(=O)Nc1cc(-c2ccc(C(=O)NC3CC3)cc2)cn2c(-c3cccc(C(C)=O)c3)cnc12`, the IC50 was 9.83 µM.

In the case of `O=C(NC1CCCCC1)C(c1ccc2ncccc2c1)N(Cc1cccs1)C(=O)c1cccs1` (centres undefined), the half-maximal inhibitory concentration (IC50) is 1.96 µM.

Take `COc1ccc2o/c(=N/NC(=O)c3cccs3)c(C(N)=O)cc2c1`: the concentration for half-maximal inhibition (IC50) was 2.29 µM.

With `CC1Cc2ccccc2N1C(=O)c1cc2c(=O)n3ccccc3nc2n1C` (centres undefined), the IC50 was > 79 µM (inactive).

In the case of `N#Cc1cnn2cc(-c3ncc(C(F)(F)F)cc3Cl)cnc12`, the IC50 was 29.9 µM (inactive).

For `COC(=O)c1cc2ccc(OC)cc2c2cc(OC)c(OC)cc12`, the IC50 is > 79 µM (inactive).

Regarding `CC1(C)Oc2ccc3ccc(=O)oc3c2/C(=C/Nc2ccccn2)C1=O`, the IC50 was > 79 µM (inactive).

As for `O=C(CN(c1ccc2c(c1)OCCO2)S(=O)(=O)c1ccccc1)Nc1ccc2c(c1)OCO2`, the half-maximal inhibitory concentration (IC50) was 4.32 µM.

On to `CC(C)(C)C(=O)Nc1cccc(-c2nnc(-c3cccc(NC(=O)C(C)(C)C)c3)o2)c1`, for which the half-maximal inhibitory concentration (IC50) was 4.79 µM.

Turning to `CCOC(=O)C1=C(CC)Nc2ccccc2N=C1NC(=O)c1ccc(S(=O)(=O)N(C)C)cc1`, the IC50 is 4.8 µM.

On to `COc1cc(/C=C/C(=O)Nc2ccc3nc4n(c(=O)c3c2)CCCC4)cc(OC)c1OC`, for which the IC50 is 13.3 µM (inactive).

For the molecule `COC(=O)c1cccc(S(=O)(=O)N(Cc2ccco2)Cc2cc3cc(OC)ccc3[nH]c2=O)c1`, the IC50 is 42.2 µM (inactive).

For the molecule `Cc1ccc(-c2nnc(NCc3nc4ccccc4[nH]3)c3ccccc23)cc1S(=O)(=O)N1CCOCC1`, the 50% inhibitory concentration (IC50) is 4.11 µM.

With `CC1(C)Cc2c(c(N3CCOCC3)nc3sc4c(NN)ncnc4c23)CS1`, the IC50 was > 79 µM (inactive).

Consider `COCCn1c(=NC(=O)c2nc3ccccc3s2)sc2cc(S(C)(=O)=O)ccc21`, for which the IC50 is 1.4 µM.

With `COc1ccc(-c2cc(NC=O)c3ncc(-c4cccc(C(C)=O)c4)n3c2)cc1`, the IC50 was > 79 µM (inactive).

Consider `COc1ccc(-c2cc(C(=O)N(C)Cc3ccccc3F)c3ccccc3n2)cc1OC`, for which the IC50 is > 79 µM (inactive).

In the case of `COc1ccc(-c2cc(-c3nnc(COC(=O)C4CC4C)o3)c3ccccc3n2)cc1OC` (centres undefined), the IC50 is 3.86 µM.

Consider `c1cc2[nH]snc2c2nc(C3CC3)nc12`, for which the IC50 was 7.56 µM.

As for `CC(=O)c1ccc(N2CCN(C(=O)c3cc(-c4cccnc4)nc4ccc(Br)cc34)CC2)cc1`, the concentration for half-maximal inhibition (IC50) is 3.78 µM.

For `O=C(CCCn1c(SCC(=O)c2ccc(O)c(O)c2)nc2ccccc2c1=O)NCC1CCCO1` (centres undefined), the IC50 is 21.7 µM (inactive).

For the molecule `COc1ccccc1NC(=O)c1cc(-c2cc(OC)c(OC)c(OC)c2)nc2ccccc12`, the half-inhibitory concentration (IC50) is 2.88 µM.

As to `COc1ccc2c(c1OC)C(=O)N1c3ccccc3C(=O)N(c3ccccc3)C21` (centres undefined), the IC50 was 6.9 µM.

Regarding `COc1cccc(OC)c1C(=O)Nc1cc(C)nn1-c1nc2ccccc2[nH]1`, the IC50 is 4.1 µM.

Regarding `COc1cc(-c2cc(NC=O)c3ncc(-c4ccc(C(C)=O)cc4)n3c2)ccc1O`, the 50% inhibitory concentration (IC50) is 3.61 µM.

In the case of `COc1cc(CN2C[C@@H](CO)O[C@@H](n3cnc4c(Nc5ccccc5)ncnc43)C2)cc(OC)c1OC`, the IC50 was 10.6 µM (inactive).

In the case of `COc1ccc(CCNc2nc(-c3cccnc3)nc3ccccc23)cc1OC`, the IC50 is 2.28 µM.

Regarding `CC(=O)c1cccc(NC(=O)Nc2ccc3c(c2)N(C)C(=O)CS3)c1`, the concentration for half-maximal inhibition (IC50) was 3.53 µM.

On to `Cc1nn(-c2ccccc2)c(N2CCCC2)c1/C=N/NC(=O)c1cc(-c2ccccn2)nc2ccccc12`, for which the half-inhibitory concentration (IC50) is 7.63 µM.

Consider `S=C(Nc1ccc(N2CCOCC2)cc1)Nc1ccc2nc(-c3ccco3)c(-c3ccco3)nc2c1`, for which the IC50 was 10.7 µM (inactive).

For the molecule `COc1ccccc1CN(C)C(=O)c1cc(-c2cc(OC)c(OC)c(OC)c2)nc2ccccc12`, the IC50 is > 79 µM (inactive).

As for `CC(C)C1Nc2ccc(C(=O)N3CCN(c4ccccn4)CC3)cc2NC1=O` (centres undefined), the IC50 was 22.9 µM (inactive).

Take `CC(=O)c1ccc(-c2cnc3c(NC=O)cc(-c4ccc(C(=O)NC5CC5)cc4)cn23)cc1`: the half-maximal inhibitory concentration (IC50) is 3.38 µM.

For `COc1ccc(OC)c(Nc2nc(N)c([N+](=O)[O-])c(N3CCOCC3)n2)c1`, the IC50 is 11.8 µM (inactive).

In the case of `O=C(CNC(=O)c1[nH]cnc1C(=O)NC(c1ccccc1)c1ccccc1)OCc1ccccc1`, the IC50 was 10.1 µM (inactive).

On to `COc1ccc(-c2oc(=O)c3cc(OC)c(OC)cc3c2C#CCCO)cc1`, for which the IC50 is 6.71 µM.

Regarding `COc1cccc(-c2cnc3c(NC=O)cc(-c4cccc(NC(C)=O)c4)cn23)c1`, the half-maximal inhibitory concentration (IC50) is 5.98 µM.

With `COC(=O)C1=C(C)N(CCc2ccc(OC)cc2)C(=O)C1`, the IC50 is 21.9 µM (inactive).

`COc1cc(-c2cc(NC(C)=O)c3ncc(-c4cc(OC)c(OC)c(OC)c4)n3c2)cc(OC)c1OC`: the IC50 was 3.85 µM.

Take `Cc1nn(C)cc1C(C(=O)NC1CCCCC1)N(C(=O)Cc1cccs1)c1ccc(Cl)cc1` (centres undefined): the IC50 was 8.18 µM.

Turning to `O=C(C[C@@H]1C/C=C/CC[C@@H](Cc2ccc(F)cc2)C(=O)O[C@@H](c2ccccc2)CNC1=O)NCCO`, the IC50 was 10.9 µM (inactive).

Consider `O=C(N/N=C/c1ccc2c(c1)OCO2)c1ccc(NC(=O)c2ccccc2Cl)cc1`, for which the IC50 is 8.05 µM.

For the molecule `CNC(=O)c1ccc(-c2sc3nc(N4CCOCC4)c4c(c3c2N)CCCC4)o1`, the IC50 was 11.6 µM (inactive).

Take `CC(C)(C)C(=O)Nc1ccc(C(=O)N/N=C/c2ccccc2OC(=O)c2ccccc2)cc1`: the half-maximal inhibitory concentration (IC50) is 6.72 µM.

In the case of `CC(=O)c1ccc(-c2[nH]c3ccccc3c2CCN2C(=O)c3ccccc3C2=O)cc1`, the IC50 is 9.73 µM.

With `COc1ccc(Nc2nnc(SCc3cc(=O)n4ccsc4n3)s2)cc1`, the IC50 was 8.23 µM.
